Measurements taken from ChEMBL document CHEMBL5331042, “Azole inhibitors of mushroom and human tyrosinases: Current advances and prospects of drug development for melanogenic dermatological disorders” (Eur J Med Chem, 2022).
Peptide text beside a SMILES is read from it.

Experiments:
Mushroom tyrosinase [1] = target: T1, Mushroom tyrosinase (Agaricus bisporus, UniProt O42713+Q00024+C7FF04+C7FF05); experiment: Binding affinity to mushroom tyrosinase assessed as inhibition constant using L-DOPA as substrate preincubated for 10 mins followed by substrate addition and measured after 20 mins
Mushroom tyrosinase [2] = target: T1, Mushroom tyrosinase; experiment: Inhibition of mushroom tyrosinase using L-DOPA as substrate preincubated for 10 mins followed by substrate addition and measured after 20 mins by absorbance based analysis
Mushroom tyrosinase [3] = target: T1, Mushroom tyrosinase; experiment: Inhibition of mushroom tyrosinase using L-DOPA as substrate preincubated for 10 mins followed by substrate addition and measured after 20 mins
Mushroom tyrosinase [4] = target: T1, Mushroom tyrosinase; experiment: Inhibition of mushroom tyrosinase
Mushroom tyrosinase [5] = target: T1, Mushroom tyrosinase; experiment: Inhibition of mushroom tyrosinase using L-DOPA as substrate preincubated for 20 mins followed by substrate addition by absorbance based analysis
Mushroom tyrosinase [6] = target: T1, Mushroom tyrosinase; experiment: Inhibition of mushroom tyrosinase using L-tyrosine as substrate preincubated for 20 mins followed by substrate addition by absorbance based analysis
Tyrosinase [7] = target: T2, Tyrosinase (Homo sapiens, UniProt P14679); experiment: Inhibition of human tyrosinase using L-DOPA as substrate incubated for 10 to 20 mins by MBTH dye based assay
T2 sequence (P14679 whole entry): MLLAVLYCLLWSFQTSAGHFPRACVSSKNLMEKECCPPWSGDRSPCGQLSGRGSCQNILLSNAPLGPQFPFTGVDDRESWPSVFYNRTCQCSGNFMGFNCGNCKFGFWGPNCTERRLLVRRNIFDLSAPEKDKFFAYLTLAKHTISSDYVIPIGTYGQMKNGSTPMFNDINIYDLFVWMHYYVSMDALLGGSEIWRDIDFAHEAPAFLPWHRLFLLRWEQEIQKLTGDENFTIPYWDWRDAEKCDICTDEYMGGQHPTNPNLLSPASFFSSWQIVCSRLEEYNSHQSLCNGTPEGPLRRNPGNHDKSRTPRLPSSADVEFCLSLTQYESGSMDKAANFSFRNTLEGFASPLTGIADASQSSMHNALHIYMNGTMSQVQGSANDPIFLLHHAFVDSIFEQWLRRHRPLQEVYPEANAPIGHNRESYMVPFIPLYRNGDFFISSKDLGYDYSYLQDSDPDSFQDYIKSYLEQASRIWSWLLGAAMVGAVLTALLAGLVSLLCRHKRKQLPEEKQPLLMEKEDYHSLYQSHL

[8] = target: Mushroom tyrosinase (Agaricus bisporus) (UniProt O42713+Q00024+C7FF04+C7FF05); experiment: Inhibition of mushroom tyrosinase transfected in mouse B16-F10 cells at 25 uM using L-tyrosine as substrate relative to control; assay type: cell-based
[9] = Cytotoxicity against mouse B16-F10 cells assessed as inhibition of cell growth upto 20 uM measured after 24 hrs by absorbance based assay relative to control; assay type: toxicity
Mushroom tyrosinase [10] = target: T1, Mushroom tyrosinase; experiment: Binding affinity to mushroom tyrosinase assessed as inhibition constant incubated for 10 mins by spectrophotometric analysis
Mushroom tyrosinase [11] = target: T1, Mushroom tyrosinase; experiment: Inhibition of mushroom tyrosinase incubated for 10 mins by spectrophotometric analysis
[12] = Cytotoxicity against mouse B16-F10 cells assessed as inhibition of cell growth measured after 48 hrs by MTT assay; assay type: toxicity, cell-based
[13] = Cytotoxicity against mouse B16-F10 cells assessed as inhibition of cell growth at 8 uM measured after 24 hrs by MTT assay relative to control; assay type: toxicity, cell-based
Tyrosinase [14] = target: T2, Tyrosinase; experiment: Inhibition of human His-tagged tyrosinase CD expressed in HEK293 cells assessed as inhibition of melanin production using L-DOPA as substrate; assay type: cell-based
Mushroom tyrosinase [15] = target: T1, Mushroom tyrosinase; experiment: Binding affinity to mushroom tyrosinase assessed as inhibition constant using L-DOPA as substrate preincubated for 10 mins followed by substrate addition by absorbance based analysis
Mushroom tyrosinase [16] = target: T1, Mushroom tyrosinase; experiment: Inhibition of mushroom tyrosinase using L-DOPA as substrate preincubated for 10 mins followed by substrate addition by absorbance based analysis

Compound: O=C1OC(c2ccccc2Br)=NC(=S)C1c1nn[nH]n1 (stereo not given)
- Ki (Mushroom tyrosinase [1]): 0.0003 µM
- IC50 (Mushroom tyrosinase [2]): 0.037 µM

Compound: COc1ccccc1-n1c(SCC(=O)Nc2ccccc2)nnc1-c1ccccc1F
- IC50 (Mushroom tyrosinase [3]): 0.54 µM

Compound: COc1ccccc1-n1c(SCC(=O)Nc2ccc(Br)cc2)nnc1-c1ccccc1
- IC50 (Mushroom tyrosinase [3]): 0.0048 µM
- Ki (Mushroom tyrosinase [1]): 0.007 µM

Compound: CC(C)[C@H]1C(=O)N2CCC[C@H]2C(=O)N[C@@H](Cc2ccc(O)cc2)C(=O)N2CCC[C@H]2c2cn1nn2
- IC50 (Mushroom tyrosinase [4]): 1.5 µM

Compound: NC(=S)N/N=C/c1ccc(OCc2cn(CC(=O)Nc3ccccc3)nn2)cc1
- IC50 (Mushroom tyrosinase [5]): 2.18 µM
- IC50 (Mushroom tyrosinase [6]): 0.79 µM

Compound: O=C(Nc1cccc(-c2ccc(O)cc2O)c1)C1CCCCC1
- IC50 (Tyrosinase [7]): > 700 µM

Compound: O=C1/C(=C/c2ccc(O)cc2O)OC(=S)N1c1ccccc1
- inhibition [8]: 55%
- inhibition at 24 h, up to 20 µM [9]: ~55%
- IC50 (Mushroom tyrosinase [4]): 4.7 µM

Compound: CC(C)Nc1nc(-c2ccc(O)cc2O)cs1
- IC50 (Tyrosinase [7]): 1.1 µM

Compound: NC(=S)N/N=C/c1ccc(OCc2cn(CC(=O)Nc3ccc([N+](=O)[O-])cc3)nn2)cc1
- IC50 (Mushroom tyrosinase [5]): 0.68 µM

Compound: CCCCCn1nc(-c2ccccc2)n(CC(=O)NNC(=S)Nc2ccccc2C(F)(F)F)c1=O
- Ki (Mushroom tyrosinase [10]): 0.122 µM
- IC50 (Mushroom tyrosinase [11]): 5.62 µM

Compound: O=C1C=C(Cn2cc(COc3cccc4ccccc34)nn2)C(=O)C=C1O
- IC50 (Mushroom tyrosinase [2]): 0.06 µM
- IC50 at 48 h [12]: 65 µM

Compound: O=C1/C(=C/c2ccccc2O)OC(=S)N1c1ccccc1
- inhibition [8]: 65%
- inhibition at 24 h, up to 20 µM [9]: ~65%
- IC50 (Mushroom tyrosinase [4]): 11.18 µM

Compound: NC(=S)N/N=C/c1ccc(OCc2cn(CC(=O)NCc3ccccc3)nn2)cc1
- inhibition at 24 h, 8 µM [13]: 39.8%
- IC50 (Mushroom tyrosinase [5]): 0.17 µM
- IC50 (Mushroom tyrosinase [6]): 0.25 µM

Compound: COc1ccccc1-n1c(SCC(=O)Nc2ccc(F)cc2)nnc1-c1ccccc1
- IC50 (Mushroom tyrosinase [3]): 0.08 µM

Compound: C[C@@H](O)CCc1ccc(O)cc1
- IC50 (Tyrosinase [14]): 1200 µM

Compound: Oc1ccc(/C=N/c2nnc(S)s2)c(O)c1
- Ki (Mushroom tyrosinase [15]): 0.075 µM
- IC50 (Mushroom tyrosinase [16]): 0.25 µM

Compound: COc1ccccc1-n1c(SCC(=O)Nc2ccc(I)cc2)nnc1-c1ccccc1
- IC50 (Mushroom tyrosinase [3]): 0.65 µM

Compound: CCCCc1ccc(O)c(C)c1O
- IC50 (Tyrosinase [7]): > 200 µM

Compound: COc1cc(/C=N/c2nnc(S)s2)ccc1O
- Ki (Mushroom tyrosinase [15]): 0.038 µM
- IC50 (Mushroom tyrosinase [16]): 0.036 µM

Compound: COc1ccccc1-n1c(SCC(=O)Nc2ccc(I)cc2)nnc1-c1ccccc1F
- IC50 (Mushroom tyrosinase [3]): 0.06 µM

Compound: NC(=S)N/N=C/c1ccc(OCc2cn(CC(=O)Nc3cccc(Cl)c3)nn2)cc1
- IC50 (Mushroom tyrosinase [5]): 0.5 µM

Compound: O=c1cc(CO)occ1O [KOJIC ACID]
- inhibition at 24 h, 8 µM [13]: 94%

Compound: CCCCn1c(SCC(=O)Nc2ccccc2)nnc1-c1ccccc1
- IC50 (Mushroom tyrosinase [3]): 0.21 µM

Compound: CC(C)[C@H]1C(=O)N2CCC[C@H]2c2cn(nn2)[C@@H](Cc2ccc(O)cc2)C(=O)N2CCC[C@H]2c2cn1nn2
- IC50 (Mushroom tyrosinase [4]): 1.6 µM

Compound: COc1ccccc1-n1c(SCC(=O)Nc2ccc(Br)cc2)nnc1-c1ccccc1F
- IC50 (Mushroom tyrosinase [3]): 0.15 µM

Compound: Oc1ccc(-c2csc(Nc3ncccn3)n2)cc1
- IC50 (Tyrosinase [7]): 19 µM

Compound: Cc1c(NC(=O)Cn2cc(COc3ccc(/C=N/NC(N)=S)cc3)nn2)cccc1[N+](=O)[O-]
- IC50 (Mushroom tyrosinase [5]): 0.56 µM
- IC50 (Mushroom tyrosinase [6]): 0.25 µM

Compound: CCCC(=O)Nc1cnc(-c2cc(CCC)c(O)cc2O)s1
- IC50 (Tyrosinase [7]): > 1000 µM

Compound: Cc1c(Cl)cccc1NC(=O)Cn1cc(COc2ccc(/C=N/NC(N)=S)cc2)nn1
- IC50 (Mushroom tyrosinase [5]): 0.26 µM

Compound: O=C(NC1CCCCC1)c1csc(-c2ccc(O)cc2O)n1
- IC50 (Tyrosinase [7]): 3.2 µM

Compound: CC(=O)/C=C/Nc1nc(-c2ccc(O)cc2O)cs1
- IC50 (Tyrosinase [7]): 3.5 µM

Compound: CC(=O)Nc1nc(-c2ccc(O)cc2O)c[nH]1
- IC50 (Tyrosinase [7]): > 700 µM

Compound: CC(C)[C@@H]1NC(=O)[C@@H]2CCCN2C(=O)[C@H](Cc2ccc(O)cc2)NC(=O)[C@@H]2CCCN2C1=O (cyclo(PVPY))
- IC50 (Mushroom tyrosinase [4]): 0.6 µM

Compound: CCCCn1c(SCC(=O)Nc2ccc(F)cc2)nnc1-c1ccccc1
- IC50 (Mushroom tyrosinase [3]): 0.37 µM

Compound: CCCCCn1nc(-c2ccccc2)n(CC(=O)NNC(=O)Nc2ccccc2C(F)(F)F)c1=O
- Ki (Mushroom tyrosinase [10]): 0.012 µM
- IC50 (Mushroom tyrosinase [11]): 0.00166 µM

Compound: COc1ccccc1-n1c(SCC(=O)Nc2ccc(F)cc2)nnc1-c1ccccc1F
- IC50 (Mushroom tyrosinase [3]): 0.17 µM

Compound: OCc1ccc(Nc2nc(-c3ccc(O)cc3O)cs2)cc1
- IC50 (Tyrosinase [7]): 5.7 µM

Compound: NC(=S)N/N=C/c1ccc(OCc2cn(CC(=O)NCc3ccc(F)cc3)nn2)cc1
- IC50 (Mushroom tyrosinase [5]): 0.43 µM
- IC50 (Mushroom tyrosinase [6]): 0.83 µM

Compound: Oc1ccc(O)cc1 [HYDROQUINONE]
- IC50 (Tyrosinase [14]): 15 µM

Compound: CCC(=O)Nc1nc(-c2ccc(O)cc2F)cs1
- IC50 (Tyrosinase [7]): > 700 µM

Compound: NC(=S)N/N=C/c1ccc(OCc2cn(CC(=O)Nc3ccc(F)cc3)nn2)cc1
- IC50 (Mushroom tyrosinase [5]): 0.6 µM
- IC50 (Mushroom tyrosinase [6]): 0.14 µM

Compound: CC(C)C(=O)Nc1nc(-c2ccc(O)cc2O)cs1
- IC50 (Tyrosinase [14]): 0.9 µM
- IC50 (Tyrosinase [7]): 1.4 µM

Compound: CCCNc1nc(-c2ccc(O)cc2O)cs1
- IC50 (Tyrosinase [7]): 6.2 µM

Compound: CCCCc1ccc(O)cc1O [RUCINOL]
- IC50 (Tyrosinase [14]): 13.5 µM

Compound: CC(C)[C@@H]1NC(=O)[C@@H]2CCCN2C(=O)[C@H](Cc2ccc(O)cc2)n2cc(nn2)[C@@H]2CCCN2C1=O
- IC50 (Mushroom tyrosinase [4]): 0.5 µM

Compound: CCCCn1c(SCC(=O)Nc2ccc(Br)cc2)nnc1-c1ccccc1
- IC50 (Mushroom tyrosinase [3]): 0.34 µM

Compound: NC(=S)N/N=C/c1ccc(OCc2cn(CC(=O)Nc3cccc(Cl)c3Cl)nn2)cc1
- IC50 (Mushroom tyrosinase [5]): 0.42 µM

Compound: O=C(NC1CCCCC1)c1nc(-c2ccc(O)cc2O)cs1
- IC50 (Tyrosinase [7]): 56 µM

Compound: Cc1sc(NC(=O)C2CCCCC2)nc1-c1ccc(O)cc1O
- IC50 (Tyrosinase [7]): > 1000 µM

Compound: OCCc1ccc(O)cc1O
- IC50 (Tyrosinase [7]): > 200 µM

Compound: CN(C(=O)C1CCCCC1)c1nc(-c2ccc(O)cc2O)cs1
- IC50 (Tyrosinase [7]): > 1000 µM

Compound: COc1ccccc1-n1c(SCC(=O)Nc2ccccc2)nnc1-c1ccccc1
- IC50 (Mushroom tyrosinase [3]): 0.02 µM

Compound: O=C1C=C(Cn2cc(COc3ccc4ccccc4c3)nn2)C(=O)C=C1O
- IC50 (Mushroom tyrosinase [2]): 0.3 µM
- IC50 at 48 h [12]: 67.5 µM

Compound: COc1cccc(NC(=O)Cn2cc(COc3ccc(/C=N/NC(N)=S)cc3)nn2)c1
- IC50 (Mushroom tyrosinase [5]): 0.84 µM
- IC50 (Mushroom tyrosinase [6]): 0.22 µM

Compound: NC(=S)N/N=C/c1ccc(OCc2cn(CC(=O)Nc3ccc(Cl)cc3)nn2)cc1
- inhibition at 24 h, 8 µM [13]: 69.6%
- IC50 (Mushroom tyrosinase [5]): 0.14 µM

Compound: CCCCn1c(SCC(=O)Nc2ccc(I)cc2)nnc1-c1ccccc1
- IC50 (Mushroom tyrosinase [3]): 0.21 µM

Compound: CC(C)(O)c1ccc(C(=O)Nc2nc(-c3ccc(O)cc3O)cs2)cc1
- IC50 (Tyrosinase [7]): 3.2 µM

Compound: NC(=S)N/N=C/c1ccc(OCc2cn(CC(=O)Nc3cccc(Br)c3)nn2)cc1
- inhibition at 24 h, 8 µM [13]: ≤ 70%
- IC50 (Mushroom tyrosinase [5]): 0.21 µM

Compound: CCCCCCc1ccc(O)c(C)c1O
- IC50 (Tyrosinase [7]): 93 µM

Compound: COc1cc(C2CC(c3cc4ccccc4oc3=O)=NN2c2nc(-c3ccc(Br)cc3)cs2)ccc1OCc1ccccc1 (stereo not given)
- Ki (Mushroom tyrosinase [15]): 0.0086 µM
- IC50 (Mushroom tyrosinase [16]): 0.00458 µM

Compound: CN(c1nc(-c2ccc(O)cc2O)cs1)C1CCCCC1
- IC50 (Tyrosinase [7]): 40 µM

Compound: Oc1ccc(-c2csc(NC3CCCCC3)n2)c(O)c1
- IC50 (Tyrosinase [7]): 16 µM

Compound: CC(=O)Nc1nc(-c2ccc(O)cc2O)cs1
- IC50 (Tyrosinase [7]): 5.6 µM

Compound: CCCCCn1nc(-c2ccccc2)n(CC(=O)NNC(=S)Nc2cc(C(F)(F)F)cc(C(F)(F)F)c2)c1=O
- IC50 (Mushroom tyrosinase [11]): > 20 µM

Compound: COc1ccc(NC(=O)Cn2cc(COc3ccc(/C=N/NC(N)=S)cc3)nn2)cc1
- IC50 (Mushroom tyrosinase [5]): 0.52 µM
- IC50 (Mushroom tyrosinase [6]): 0.12 µM

Compound: CC(C)(C)C(=O)Nc1nc(-c2ccc(O)cc2O)cs1
- IC50 (Tyrosinase [7]): 5.7 µM
